For one data set, the system named is southern sandbur (CCHEC). The experiment in a line: Test 11 field trial, preemergence. It counts as in vivo, Cenchrus echinatus. Set-up: scale not given here. The settings on record: alone or + atrazine 1500 or metolachlor 2500. From the text: Corn seeds (hybrid ‘Pioneer 3041’) were planted in mid spring season, 5 cm deep in a clay soil having 2.6% organic matter and a pH of 5.6. Plots were 8 m long by 1.5 m wide with rows spaced 80 cm apart. Seeds were spaced 15 cm apart within the rows. The field was managed using conventional tillage practices. […] Treatments consisted of Compound 2 or
Goosegrass was not evaluated 16 or 91 days after application.

In data set [1] the test system is corn (ZEAMD). The experiment in a line: Test 1 field trial, preemergence. The class given is in vivo, Zea mays ssp. indentata. Set-up: scale not given here. The note with it: g a.i./ha: Atrazine 1680, S-Metolachlor 1870. From the text:
(§1) Corn seeds (hybrid ‘Pioneer 34N43’) were planted in mid spring season, 3.8 cm deep in a silt loam soil having 4.6% organic matter and a pH of 6. Plots were 10.7 m long by 1.5 m wide with rows spaced 76 cm apart. Seeds were spaced 18 cm apart within the rows. The field was managed using conventional tillage practices. […] Results are summarized in Table 1 and are the means of the three replicates. […] Colby's Equation (Colby, S. R. “Calculating Synergistic and Antagonistic Responses of Herbicide Combinations,” Weeds, 15(1), pp 20-22 (1967)) calculates the expected additive effect of herbicidal mixtures, and for two active ingredients is of the form:
(§2) Pa+b=Pa+Pb−(PaPb/100) • wherein Pa+b is the percentage effect of the mixture expected from additive contribution of the individual components, • Pa is the observed percentage effect of the first active ingredient at the same use rate as in the mixture, and • Pb is the observed percentage effect of the second active ingredient at the same use rate as in the mixture.

A further data set concerns yellow foxtail (SETLU). The data set is described as follows: Test 1 field trial, preemergence. The class given is in vivo, Setaria glauca. The settings on record: 56 DAA; g a.i./ha: Atrazine 1680; S-Metolachlor 1870.
Excerpt: as §1, §2

Another data set has as its system common ragweed (AMBEL). The data set is described as follows: Test 10 field trial, preemergence. It counts as in vivo, Ambrosia artemisiifolia. The note with it: 28 DAA; g a.i./ha: Cpd 2 100, Atrazine 1680, S-Metolachlor 1870. From the text: (§3) Corn seeds (hybrid ‘Pioneer 33P65 RR’) were planted in mid spring season, 2.5 cm deep in a silt loam soil. Plots were 9.1 m long by 3.0 m wide with rows spaced 76 cm apart. The field was managed using conventional tillage practices. […] Results are the means of the three replicates.

A further data set has as its system common cocklebur (XANST). The data set is described as follows: Test 10 field trial, preemergence. The note with it: 28 DAA; g a.i./ha: Cpd 2 100, Atrazine 1680, S-Metolachlor 1870. It counts as in vivo, Xanthium strumarium ssp. strumarium.
Excerpt: as §3

For data set [2], the system named is Pennsylvania smartweed (POLPY). The experiment in a line: Test 8 field trial, preemergence. The class given is in vivo, Polygonum pensylvanicum. The note with it: 29 DAA; g a.i./ha: Cpd 2 100, Atrazine 1680, S-Metolachlor 1870. An excerpt: (§4) Corn seeds (hybrid ‘Pioneer 31G96’) were planted in mid spring season, 3.8 cm deep in a clay loam soil having 2% organic matter and a pH of 6.6. Plots were 6.1 m long by 3.0 m wide with rows spaced 76 cm apart. Seeds were spaced 15 cm apart within the rows. The field was managed using conventional tillage practices. […] A few of the weed species could not be evaluated at every timing. […] Results are the means of the three replicates.

Data set [3] relates to corn (ZEAMD). The data set is described as follows: Test 8 field trial, preemergence. The class given is in vivo, Zea mays ssp. indentata. The note with it: g a.i./ha: Cpd 2 100, Atrazine 1680, S-Metolachlor 1870.
Excerpt: as §4

Data set [4] concerns velvetleaf (ABUTH). The data set is described as follows: Test 8 field trial, preemergence. The note with it: g a.i./ha: Cpd 2 100, Atrazine 1680, S-Metolachlor 1870. It counts as in vivo, Abutilon theophrasti.
Excerpt: as §4

Data set [5] has as its system velvetleaf (ABUTH). The experiment in a line: Test 10 field trial, preemergence. It counts as in vivo, Abutilon theophrasti. The settings on record: 28 DAA; g a.i./ha: Cpd 2 100, Atrazine 1680, S-Metolachlor 1870.
Excerpt: as §3

Another data set has as its system jimsonweed (DATST). The experiment in a line: Test 8 field trial, preemergence. It counts as in vivo, Datura stramonium. The settings on record: g a.i./ha: Cpd 2 100, Atrazine 1680, S-Metolachlor 1870.
Excerpt: as §4

For another data set, the system named is common waterhemp (AMATA). The experiment in a line: Test 10 field trial, preemergence. The class given is in vivo, Amaranthus tamariscinus. The note with it: 28 DAA; g a.i./ha: Cpd 2 100, Atrazine 1680, S-Metolachlor 1870.
Excerpt: as §3

In another data set the test system is giant foxtail (SETFA). The experiment in a line: Test 6 field trial, postemergence. The class given is in vivo, Setaria faberi. The settings on record: 1120 g a.i./ha. An excerpt:
Corn seeds (hybrid ‘Pioneer 35Y62’) were planted in mid spring season, 3.8 cm deep in a silt loam soil having 4% organic matter and a pH of 5.8. Plots were 10.7 m long by 1.5 m wide with rows spaced 76 cm apart. Seeds were spaced 18 cm apart within the rows. The field was managed using conventional tillage practices. […] All treatments included a surfactant except glufosinate treatments, both alone and in combination. […] Results are summarized in Table 6 and are the means of the three replicates.

Data set [6] relates to corn (ZEAMD). The data set is described as follows: Test 5 field trial, postemergence. The class given is in vivo, Zea mays ssp. indentata. The note with it: atrazine 1120, glufosinate 470 or glyphosate 1120 g a.i./ha alone. An excerpt:
(§5) Corn seeds (hybrid ‘Pioneer 38H69’) were planted in mid spring season, 5.1 cm deep in a silty clay loam soil having 3% organic matter and a pH of 6.5. Plots were 9.1 m long by 3.0 m wide with rows spaced 76 cm apart. The field was managed using conventional tillage practices. […] All treatments included a surfactant except glufosinate treatments, both alone and in combination. […] Results are summarized in Table 5 and are the means of the three replicates.

In data set [7] the test system is common lambsquarters (CHEAL). The experiment in a line: Test 5 field trial, postemergence. It counts as in vivo, Chenopodium album. The note with it: atrazine 1120, glufosinate 470 or glyphosate 1120 g a.i./ha alone.
Excerpt: as §5

Data set [8] relates to velvetleaf (ABUTH). The data set is described as follows: Test 5 field trial, postemergence. The class given is in vivo, Abutilon theophrasti. The note with it: atrazine 1120, glufosinate 470 or glyphosate 1120 g a.i./ha alone.
Excerpt: as §5

Data on 3 compounds can be found in US20100285959A1, “HERBICIDAL MIXTURES” (priority 2006, published 2010).

For `Nc1nc(C2CC2)nc(C(=O)O)c1Cl` [Compound 1, 6-amino-5-chloro-2-cyclopropyl-4-pyrimidinecarboxylic acid], the “CCHEC Obs” value in the data set with southern sandbur (CCHEC) (16 DAA, Cpd 2/Cpd 1 at 62 g a.i./ha) is on record as 40; with southern sandbur (CCHEC) (16 DAA, Cpd 2/Cpd 1 at 125 g a.i./ha) it was 40; with southern sandbur (CCHEC) (30 DAA, Cpd 2/Cpd 1 at 62 g a.i./ha), 20; in the data set with southern sandbur (CCHEC) (30 DAA, Cpd 2/Cpd 1 at 125 g a.i./ha), 20; in the data set on southern sandbur (CCHEC) (44 DAA, Cpd 2/Cpd 1 at 62 g a.i./ha), 0; in the data set on southern sandbur (CCHEC) (44 DAA, Cpd 2/Cpd 1 at 125 g a.i./ha), 40. Also, the “CCHEC Obs” value is 0 with southern sandbur (CCHEC) (62 DAA, Cpd 2/Cpd 1 at 62 g a.i./ha); 0 in the data set with southern sandbur (CCHEC) (62 DAA, Cpd 2/Cpd 1 at 125 g a.i./ha); 0 in the data set with southern sandbur (CCHEC) (91 DAA, Cpd 2/Cpd 1 at 62 g a.i./ha); 0 in the data set on southern sandbur (CCHEC) (91 DAA, Cpd 2/Cpd 1 at 125 g a.i./ha).

For `CCc1cccc(C)c1N(C(=O)CCl)[C@@H](C)COC` [S-Metolachlor, S-metolachlor, reference compound], the “ZEAMD Obs” value in the data set on corn (ZEAMD) [1] (28 DAA) stood at 0; in the data set on corn (ZEAMD) [1] (56 DAA), 0; in the data set with corn (ZEAMD) [3] (19 DAA) it was 0%; in the data set with corn (ZEAMD) [3] (29 DAA) it was 3%; with corn (ZEAMD) [3] (56 DAA), 5%. For the same compound, the “SETLU Obs” value in the data set on yellow foxtail (SETLU) is 100. The “AMBEL Obs” value in the data set on common ragweed (AMBEL) is given as 20%. Also, in the data set on common cocklebur (XANST), the “XANST Obs” value is 30%. Also, in data set [2], the “POLPY Obs” value turned out to be 100%. Besides, the “ABUTH Obs” value in the data set with velvetleaf (ABUTH) [4] (19 DAA) was found to be 28%; in the data set on velvetleaf (ABUTH) [4] (29 DAA), 42%; with velvetleaf (ABUTH) [4] (56 DAA) it was 18%; with velvetleaf (ABUTH) [5], 37%. In addition, the “DATST Obs” value stood at 40% with jimsonweed (DATST) (19 DAA), 38% in the data set with jimsonweed (DATST) (29 DAA) and 52% in the data set with jimsonweed (DATST) (56 DAA). Also, the “AMATA Obs” value in the data set on common waterhemp (AMATA) worked out at 70%.

Regarding `O=C(O)CNCP(=O)(O)O` [Glyphosate], the “SETFA Obs” value in the data set on giant foxtail (SETFA) (14 DAA) and in the data set on giant foxtail (SETFA) (28 DAA) was 100% in each case. Also, the “ZEAMD Obs” value in the data set on corn (ZEAMD) [6] (16 DAA) and with corn (ZEAMD) [6] (31 DAA) was 0% in each case. For the same compound, the “CHEAL Obs” value in data set [7] (16 DAA) came to 100%; in data set [7] (31 DAA) it was 97%. Also, the “ABUTH Obs” value in the data set on velvetleaf (ABUTH) [8] (16 DAA) and with velvetleaf (ABUTH) [8] (31 DAA) was 84% throughout.
